{"source": "patent US20250177340A1", "about": "“Tartaric Acid Analogs and Uses Thereof” (Lapix Therapeutics, Inc., priority 2021, published 2025)", "key": {"[1]": {"test_system": "CTLA-4", "assay": "Percent CTLA-4+/CD8+ T-cells in splenocytes after a single dose, melanoma murine model", "format": "in vivo, mice", "procedure": "The pharmacodynamic (PD) effects of a single IV dose of Compound B in a melanoma murine model were evaluated. B16F10 melanoma cells were grown in RPMI 1640 media supplemented with 10% FBS and antibiotics (penicillin/streptomycin) using T75 flasks. When cells reached 70-80% confluency, they were treated with 3 ml of 0.25% Trypsin/EDTA. Afterward, detached cells were harvested. A single-cell suspension was prepared in PBS. An IV injection of 10^5 cells in mice marked day −3 of the experiment.\nAnimals were housed four per cage, and had access to food and water ad libitum. Compound B was dissolved in sterile PBS, and pH was adjusted to approximately 7.5. Sterile PBS served as control.\nThree days after the IV injection of melanoma cells, animals in the baseline group (n=3) were sacrificed and their spleens were collected for KLRG-1, CTLA-4, and PD-1 analysis. At each predetermined time-point (24, 48, and 120 hours after dosing) three animals from each group were sacrificed for splenocyte analysis of KLRG-1, CTLA-4, and PD-1 expression levels, and expression levels were compared to baseline.\nSpleens collected for splenocyte analysis were prepared into a single-cell suspension for cellular phenotyping by flow cytometry. Cells were stained and gated for CD8. Percent KLRG-1+, CTLA-4+, and PD-1+ CD8+ T-cells were evaluated using flow cytometry."}, "[2]": {"test_system": "melanoma cells", "assay": "Tumor growth inhibition and overall survival, two doses of Compound B (Example 14)", "format": "in vivo, mice", "procedure": "This study was designed to evaluate the effects of two different doses of Compound B on tumor growth and the overall survival of animals implanted SC with 10^5 melanoma cells. The study was carried out in accordance with the study described in Example 13, except that mice received either placebo, 0.4 mg/mouse PO QD of Compound B for seven days starting at day 7 after tumor implantation, or 4 mg/mouse PO QD of Compound B for seven days starting at day 7 after tumor implantation."}, "[3]": {"test_system": "B16F10 melanoma cells", "assay": "Dose-dependent tumor regression in established B16F10 tumors (Example 15)", "format": "in vivo, C57BL6 mice", "procedure": "C57BL6 mice received 10^5 B16F10 melanoma cells via SC injection at day 0. Tumor growth was monitored until tumor size reached 200 to 300 mm^3, at which time the mouse was randomized into one of the treatment groups or the control group. Mice were dosed orally until the end of the study."}, "[4]": {"test_system": "B16F10 melanoma cells", "assay": "Lung metastasis and survival after IV B16F10 melanoma cells (Example 16)", "format": "in vivo, C57BL6 mice", "conditions": "4 mg/mouse orally daily for two weeks", "procedure": "C57BL6 mice received 10^5 B16F10 melanoma cells via IV injection at day 0. At day 7, mice were randomized into one of two groups (n=6 per group): an untreated group and a group treated orally with Compound B at 4 mg/mouse daily for two weeks.\nAt the end of the first week of treatment (14 days after tumor injection), three mice from each group were euthanized, and lung metastasis was counted (FIG. 11A). By the end of the second week of treatment (21 days after tumor injection), two out of the three remaining control mice had died. The remaining control mouse and the three remaining Compound B-treated mice were euthanized, and lung metastasis assessed (FIG. 111B)."}}}
{"compound": "O=C(O)[C@H](O)[C@@H](O)C(=O)OCCCc1ccccc1", "note": "[Compound B, (2R,3R)-2,3-dihydroxy-4-oxo-4-(3-phenylpropoxy)butanoic acid]", "values": [{"measurement": "CTLA-4+/CD8+ T-cells, mean", "setting": "[1]; 0.14 mg/mouse IV single dose, 24 h", "result": 9.8, "unit": "%"}, {"measurement": "CTLA-4+/CD8+ T-cells, mean", "setting": "[1]; 0.14 mg/mouse IV single dose, 48 h", "result": 5.3, "unit": "%"}, {"measurement": "CTLA-4+/CD8+ T-cells, mean", "setting": "[1]; 0.14 mg/mouse IV single dose, 120 h", "result": 11.9, "unit": "%"}, {"measurement": "CTLA-4+/CD8+ T-cells, mean", "setting": "[1]; 0.7 mg/mouse IV single dose, 24 h", "result": 8.5, "unit": "%"}, {"measurement": "CTLA-4+/CD8+ T-cells, mean", "setting": "[1]; 0.7 mg/mouse IV single dose, 48 h", "result": 5.7, "unit": "%"}, {"measurement": "CTLA-4+/CD8+ T-cells, mean", "setting": "[1]; 0.7 mg/mouse IV single dose, 120 h", "result": 12.5, "unit": "%"}, {"measurement": "CTLA-4+/CD8+ T-cells, mean", "setting": "[1]; 1.4 mg/mouse IV single dose, 24 h", "result": 7.4, "unit": "%"}, {"measurement": "CTLA-4+/CD8+ T-cells, mean", "setting": "[1]; 1.4 mg/mouse IV single dose, 48 h", "result": 5.6, "unit": "%"}, {"measurement": "CTLA-4+/CD8+ T-cells, mean", "setting": "[1]; 1.4 mg/mouse IV single dose, 120 h", "result": 11.7, "unit": "%"}, {"measurement": "decrease from baseline in CTLA-4+/CD8+ T-cells", "setting": "[1]; single IV dose (0.14, 0.7, 1.4 mg), 48 h", "result": "approximately 35%"}, {"measurement": "reduction in CTLA-4+/CD8+ T-cells compared to same time point in control group", "setting": "[1]; single IV injection, 48 h", "result": "approximately 38%"}, {"measurement": "efficacy of low dose relative to high-dose (4 mg) treatment", "setting": "[2]; 0.4 mg PO", "result": 70, "unit": "%"}, {"measurement": "survival", "setting": "[2]; 0.4 mg and 4 mg/mouse PO QD groups", "result": "significant increase in survival"}, {"measurement": "mice tumor-free for at least 10 days after treatment stopped", "setting": "[2]; 0.4 mg/mouse PO QD for seven days", "result": 70, "unit": "%"}, {"measurement": "mice tumor-free for at least 10 days after treatment stopped", "setting": "[2]; 4 mg/mouse PO QD for seven days", "result": 90, "unit": "%"}, {"measurement": "day by which all animals died of disease", "setting": "[3]; 0.1 mg PO, tumors 200 to 300 mm^3 at start", "result": "≤ 20", "unit": "days"}, {"measurement": "day by which animals died", "setting": "[3]; 0.4 mg PO", "result": "≤ 30", "unit": "days"}, {"measurement": "tumor progression versus low-dose group and untreated mice", "setting": "[3]; 0.4 mg PO", "result": "progressed more slowly"}, {"measurement": "tumor growth", "setting": "[3]; 1 mg PO", "result": "Tumor growth control was observed early on"}, {"measurement": "tumor growth", "setting": "[3]; 4 mg PO", "result": "Tumor regression was observed"}, {"measurement": "lung metastasis", "setting": "[4]", "result": "controlled (e.g., prevented) metastasis"}, {"measurement": "survival compared to untreated mice", "setting": "[4]", "result": "improved survival"}]}
